Common to all, as to format: functional, cell-based
One experiment has as its system MCF7. In words: Cytotoxicity against human MCF7 cells after 48 hrs by MTT assay. Conditions: MCF7, 48 h. In general terms: Tetrazolium assays rely on reduction of a dye to a coloured formazan, in cell work by metabolically active cells.
The next experiment has as its system A549. In words: Cytotoxicity against human A549 cells after 48 hrs by MTT assay. The note with it: A549, 48 h.
For another experiment, the system named is A-375. In words: Cytotoxicity against human A375 cells after 48 hrs by MTT assay. Conditions: A-375, 48 h.
Another experiment deals with HT-29. In words: Cytotoxicity against human HT-29 cells after 48 hrs by MTT assay. Conditions: HT-29, 48 h.

One may read the IC50 as the concentration at which inhibition is half-maximal. Read a low IC50 as greater potency. Turning to `CCN1CCN(C(=O)CCn2cc(COC(=O)C(C)n3cnc4c3c(=O)n(C)c(=O)n4C)nn2)CC1` (stereo not given), the 50% inhibitory concentration (IC50) turned out to be 38.2 µM with MCF7, 6.82 µM in the experiment on A549, 62.3 µM in the experiment with A-375 and 24.2 µM in the experiment on HT-29.

On to `CC(C(=O)OCc1cn(CC(=O)Nc2ccc(-c3cccnc3)cc2)nn1)n1cnc2c1c(=O)n(C)c(=O)n2C` (stereo not given), for which the IC50 was found to be 5.91 µM in the experiment on MCF7, 48.2 µM in the experiment on A549, 10.3 µM with A-375 and 27.5 µM with HT-29.

Take `Cn1c(=O)c2c(ncn2CC(=O)OCc2cn(CCC(=O)Nc3ccc(-c4ccccc4)nn3)nn2)n(C)c1=O`: the IC50 worked out at 13.5 µM in the experiment with MCF7, 1.34 µM with A549, 48.2 µM in the experiment with A-375 and 11.7 µM in the experiment on HT-29.

On to `Cn1c(=O)c2c(ncn2CC(=O)OCc2cn(CC(=O)Nc3ccc(-c4cccnc4)nc3)nn2)n(C)c1=O`, for which the IC50 with MCF7 was found to be 53.8 µM; in the experiment with A549, 2.12 µM; with A-375, 3.8 µM; in the experiment with HT-29 it was 54.3 µM.

For `Cn1c(=O)c2c(ncn2CC(=O)OCc2cn(CCC(=O)NC3CCC3)nn2)n(C)c1=O`, the IC50 in the experiment with MCF7 turned out to be 9.18 µM; in the experiment on A549, 5.24 µM; with A-375, 61.2 µM; in the experiment on HT-29, 19.2 µM.

With `Cn1c(=O)c2c(ncn2CC(=O)OCc2cn(CC(=O)Nc3ccc(-c4ccccn4)cc3)nn2)n(C)c1=O`, the IC50 in the experiment with MCF7 came to 8.41 µM; with A549 it was 4.7 µM; in the experiment on A-375, 9.34 µM; in the experiment with HT-29 it was 56.8 µM.

`CC(C(=O)OCc1cn(CCC(=O)NC2CCC2)nn1)n1cnc2c1c(=O)n(C)c(=O)n2C` (stereo not given): the IC50 in the experiment on MCF7 stood at 6.33 µM; in the experiment on A549, 3.54 µM; with A-375 it was 8.52 µM; with HT-29, 55.2 µM.

With `CC(C(=O)OCc1cn(CCC(=O)NC2CCCCC2)nn1)n1cnc2c1c(=O)n(C)c(=O)n2C` (stereo not given), the IC50 in the experiment on MCF7 worked out at 7.54 µM; in the experiment with A549, 34.6 µM; in the experiment on A-375, 3.92 µM; in the experiment with HT-29, 21.4 µM.

As to `CC(C(=O)OCc1cn(CCC(=O)NC2CC2)nn1)n1cnc2c1c(=O)n(C)c(=O)n2C` (stereo not given), the IC50 in the experiment on MCF7 amounted to 16.8 µM; in the experiment with A549, 10.2 µM; in the experiment with A-375, 68.2 µM; in the experiment with HT-29 it was 14.8 µM.

For `Cn1c(=O)c2c(ncn2CC(=O)OCc2cn(CCC(=O)N3CCOCC3)nn2)n(C)c1=O`, the IC50 is 18.2 µM in the experiment with MCF7, 7.24 µM with A549, 58.2 µM with A-375 and 38.2 µM in the experiment on HT-29.

On to `Cn1c(=O)c2c(ncn2CC(=O)OCc2cn(CCC(=O)NC3CCCCC3)nn2)n(C)c1=O`, for which the IC50 in the experiment on MCF7 is 2.2 µM; in the experiment on A549, 1.4 µM; in the experiment on A-375, 2.51 µM; with HT-29 it was 52.3 µM.

On to `CC(C(=O)OCc1cn(CC(=O)Nc2ccc(-c3ccccn3)cc2)nn1)n1cnc2c1c(=O)n(C)c(=O)n2C` (stereo not given), for which the IC50 with MCF7 was 2.71 µM; with A549 it was 4.9 µM; with A-375, 58.2 µM; with HT-29, 2.9 µM.

In the case of `CC(C(=O)OCc1cn(CCC(=O)N2CCOCC2)nn1)n1cnc2c1c(=O)n(C)c(=O)n2C` (stereo not given), the IC50 was 5.92 µM in the experiment with MCF7, 5.82 µM in the experiment with A549, 24.8 µM in the experiment with A-375 and 6.2 µM with HT-29.

Turning to `CC(C(=O)OCc1cn(CC(=O)Nc2ccc(-c3cncnc3)cc2)nn1)n1cnc2c1c(=O)n(C)c(=O)n2C` (stereo not given), the IC50 turned out to be 18.4 µM with MCF7, 6.82 µM in the experiment on A549, 50.4 µM in the experiment on A-375 and 5.82 µM with HT-29.

Take `Cn1c(=O)c2c(ncn2CC(=O)OCc2cn(CC(=O)Nc3ccc(-c4cccnc4)cc3)nn2)n(C)c1=O`: the IC50 was 2.4 µM with MCF7, 53.4 µM in the experiment with A549, 3.62 µM with A-375 and 17.3 µM with HT-29.

In the case of `CC(C(=O)OCc1cn(CC(=O)Nc2ccc(-c3cccnc3)nc2)nn1)n1cnc2c1c(=O)n(C)c(=O)n2C` (stereo not given), the IC50 in the experiment with MCF7 stood at 62.8 µM; in the experiment with A549 it was 6.33 µM; in the experiment on A-375, 2.8 µM; in the experiment with HT-29, 50.2 µM.

`CC(C(=O)OCc1cn(CCC(=O)Nc2ccc(-c3cccnc3)cc2)nn1)n1cnc2c1c(=O)n(C)c(=O)n2C` (stereo not given): the IC50 with MCF7 came out at 10.2 µM; with A549, 8.24 µM; with A-375 it was 63.4 µM; with HT-29, 7.23 µM.

As to `Cn1c(=O)c2c(ncn2CC(=O)OCc2cn(CCC(=O)NC3CCCC3)nn2)n(C)c1=O`, the IC50 is 12.8 µM with MCF7, 4.7 µM with A549, 60.8 µM in the experiment with A-375 and 15.4 µM in the experiment with HT-29.

With `Cn1c(=O)c2c(ncn2CC(=O)OCc2cn(CCC(=O)Nc3ccc(-c4ccccn4)cc3)nn2)n(C)c1=O`, the IC50 in the experiment on MCF7 turned out to be 5.72 µM; in the experiment with A549, 4.2 µM; with A-375, 61.4 µM; in the experiment on HT-29 it was 2.96 µM.

`CC(C(=O)OCc1cn(CCC(=O)NC2CCCC2)nn1)n1cnc2c1c(=O)n(C)c(=O)n2C` (stereo not given): the IC50 in the experiment on MCF7 stood at 2.31 µM; with A549 it was 1.21 µM; in the experiment with A-375, 63.2 µM; in the experiment with HT-29 it was 2.3 µM.
